Data set [1] in a line: Drug concentration in plasma of C57 mouse at 20 mg/kg, ip measured after 4 hrs by LC/MS-MS analysis. The data set is classed as ADME, organism-based.
Data set [2] in a line: Drug concentration in brain of C57 mouse at 20 mg/kg, ip measured after 4 hrs by LC/MS-MS analysis. Conditions: read-out: Ct. In kind it is ADME, organism-based.
In data set [3] the test system is Rattus norvegicus. Description: Neuroprotective activity in Sprague-Dawley rat middle cerebral artery occlusion model assessed as reduction in neurobehavioral defects at 25 mg/kg, ip after 24 hrs by TTC staining based assay. In kind it is functional, organism-based.
Data set [4] concerns the target T1, Protein deacetylase HDAC6 (Homo sapiens, UniProt Q9UBN7).
T1 sequence (Q9UBN7 whole entry): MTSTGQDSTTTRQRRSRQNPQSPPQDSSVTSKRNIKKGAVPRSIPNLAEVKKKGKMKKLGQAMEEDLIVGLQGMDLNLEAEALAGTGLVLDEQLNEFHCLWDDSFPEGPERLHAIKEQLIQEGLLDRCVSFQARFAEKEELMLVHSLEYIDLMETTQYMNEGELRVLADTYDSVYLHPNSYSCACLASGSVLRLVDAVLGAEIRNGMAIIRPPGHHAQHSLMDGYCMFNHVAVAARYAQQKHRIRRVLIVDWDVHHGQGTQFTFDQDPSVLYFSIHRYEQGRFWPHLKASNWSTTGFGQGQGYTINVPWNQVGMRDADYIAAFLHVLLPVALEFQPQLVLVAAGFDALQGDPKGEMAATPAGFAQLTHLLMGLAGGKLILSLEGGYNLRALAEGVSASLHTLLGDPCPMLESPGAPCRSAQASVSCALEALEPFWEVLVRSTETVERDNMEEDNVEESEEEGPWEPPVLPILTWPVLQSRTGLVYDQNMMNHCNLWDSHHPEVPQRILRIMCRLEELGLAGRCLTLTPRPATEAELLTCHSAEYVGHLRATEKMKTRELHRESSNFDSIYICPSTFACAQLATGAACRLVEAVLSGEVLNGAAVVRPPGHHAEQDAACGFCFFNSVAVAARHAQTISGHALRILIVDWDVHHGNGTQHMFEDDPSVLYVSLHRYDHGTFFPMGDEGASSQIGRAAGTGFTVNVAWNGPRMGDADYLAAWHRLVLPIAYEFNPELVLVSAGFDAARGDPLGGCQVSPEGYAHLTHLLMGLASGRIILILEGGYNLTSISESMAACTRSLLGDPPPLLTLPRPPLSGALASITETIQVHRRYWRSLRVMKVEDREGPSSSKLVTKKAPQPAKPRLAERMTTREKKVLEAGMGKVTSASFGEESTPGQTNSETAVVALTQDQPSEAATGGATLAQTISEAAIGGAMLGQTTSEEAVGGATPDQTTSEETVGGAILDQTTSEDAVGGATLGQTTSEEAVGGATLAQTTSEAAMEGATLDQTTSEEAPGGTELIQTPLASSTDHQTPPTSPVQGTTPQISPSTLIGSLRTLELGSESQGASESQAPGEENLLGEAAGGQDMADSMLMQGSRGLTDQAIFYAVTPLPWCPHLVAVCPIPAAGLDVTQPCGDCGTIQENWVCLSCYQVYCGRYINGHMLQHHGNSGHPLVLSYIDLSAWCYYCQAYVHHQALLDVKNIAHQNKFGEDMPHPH
Description: Inhibition of human HDAC6 preincubated for 15 mins followed by substrate addition by fluorescence-based assay.

In data set [5] the target is T2, Protein deacetylase HDAC6 (Homo sapiens) (UniProt Q9UBN7).
T2 sequence (whole entry): T1 sequence (Q9UBN7 whole entry)
Description: Inhibition of HDAC6 in human SH-SY5Y cells assessed as fold increase in ratio of acetylated histone H3 to histone H3 at 10 uM incubated for 24 hrs by Western blot analysis. In kind it is cell-based.

A short description of data set [6]: Drug concentration in plasma of C57 mouse at 20 mg/kg, ip measured after 1 hr by LC/MS-MS analysis. In kind it is ADME, organism-based.
A short description of data set [7]: in vivo. Conditions: C57, mouse, brain/plasma, ip, 20 mg/kg.
Data set [8] concerns the target T2, Protein deacetylase HDAC6 (Homo sapiens). The experiment in a line: Inhibition of HDAC6 in human SH-SY5Y cells assessed as increase in acetylated histone H3 levels at 0.1 to 10 uM incubated for 24 hrs by Western blot analysis. The data set is classed as cell-based. Conditions: dose 0.1-10 µM.
For data set [9] the target is unchanged. The experiment in a line: Inhibition of HDAC6 in human SH-SY5Y cells assessed as increase in acetylated alpha-tubulin levels incubated for 24 hrs by Western blot analysis. In kind it is cell-based. Conditions: dose 0.1-10 µM.
Data set [10] can be described thus: in vivo. Conditions: C57, mouse, brain/plasma, ip, 20 mg/kg. The source holds these as a separate data set.
For data set [11], the target named is T2, Protein deacetylase HDAC6 (Homo sapiens). The experiment in a line: Inhibition of HDAC6 in human SH-SY5Y cells assessed as fold increase in ratio of acetylated alpha-tubulin to alpha-tubulin at 1 uM incubated for 24 hrs by Western blot analysis. In kind it is cell-based.
The target is the same in data set [12]. The experiment in a line: Inhibition of HDAC6 in human SH-SY5Y cells assessed as fold increase in ratio of acetylated alpha-tubulin to alpha-tubulin at 10 uM incubated for 24 hrs by Western blot analysis. In kind it is cell-based.
In data set [13] the test system is Rattus norvegicus. The experiment in a line: Neuroprotective activity in Sprague-Dawley rat middle cerebral artery occlusion model assessed as reduction in cerebral infarction at 25 mg/kg, ip after 24 hrs by TTC staining based assay (reference value: 21.22%). In kind it is functional. The arrangement: scale not given: the % may be the effect or the level left.

Data set [14] in a line: Drug concentration in brain of C57 mouse at 20 mg/kg, ip measured after 1 hr by LC/MS-MS analysis. In kind it is ADME, organism-based. Conditions: read-out: Ct.
For data set [15], the target named is Histone deacetylase 1 (Homo sapiens, UniProt Q13547). Description: Inhibition of human HDAC1 preincubated for 15 mins followed by substrate addition by fluorescence-based assay.
In data set [16] the test system is Rattus norvegicus. Description: Neuroprotective activity in Sprague-Dawley rat middle cerebral artery occlusion model assessed as reduction in neurobehavioral defects at 5 mg/kg, ip after 24 hrs by TTC staining based assay. The data set is classed as functional, organism-based.
The nature of data set [17]: Ratio of drug concentration in brain to plasma of Sprague-Dawley rat at 50 mg/kg, po measured after 60 to 180 mins by LC/MS-MS analysis. In kind it is ADME, organism-based. Conditions: time 60-180 min.
Data set [18] in a line: Ratio of drug concentration in brain to plasma of mouse at 5 to 50 mg/kg, ip after 2 hrs by HPLC/MS-MS analysis. In kind it is ADME, organism-based. Conditions: dose 5-50 mg/kg, read-out: BPR.

The record followed here is ChEMBL document CHEMBL4811245, “Design, synthesis and biological evaluation of brain penetrant benzazepine-based histone deacetylase 6 inhibitors for alleviating stroke-induced brain infarction” (Eur J Med Chem, 2021).

pIC50: −log10 of the molar value. The source made the active and inactive calls. No cut-off for these calls is given here.

Histone deacetylase 1, sequence (Q13547 whole entry): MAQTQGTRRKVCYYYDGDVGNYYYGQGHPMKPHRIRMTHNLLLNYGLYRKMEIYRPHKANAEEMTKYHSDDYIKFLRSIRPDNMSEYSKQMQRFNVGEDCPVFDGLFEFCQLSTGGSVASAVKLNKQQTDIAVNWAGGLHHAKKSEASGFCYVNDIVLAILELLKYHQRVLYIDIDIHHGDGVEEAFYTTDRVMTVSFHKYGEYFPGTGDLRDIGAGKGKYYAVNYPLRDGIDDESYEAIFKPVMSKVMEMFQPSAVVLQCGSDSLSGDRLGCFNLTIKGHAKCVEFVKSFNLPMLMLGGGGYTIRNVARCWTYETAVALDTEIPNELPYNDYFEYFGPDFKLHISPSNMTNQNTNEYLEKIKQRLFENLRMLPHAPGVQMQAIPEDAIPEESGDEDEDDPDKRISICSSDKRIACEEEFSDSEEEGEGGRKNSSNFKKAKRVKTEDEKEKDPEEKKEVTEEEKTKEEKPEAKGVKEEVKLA

Take `O=C(NO)c1ccc(CN2CCCSc3ccccc32)cc1`: the concentration at 4 h in data set [1] was 7.03 ng/mL; in data set [2], 16.6 ng/mL. In addition, the outcome in data set [3] was Active. This compound also gave a negative logarithm of the IC50 (pIC50) in data set [4] of 8.74. The FC in [5] came out at 1.1; in data set [11], 1.3; in data set [12], 1.4. Further, the concentration at 1 h in data set [6] came to 96.1 ng/mL; in [14], 220 ng/mL. This compound displayed a Kp at 1 h in data set [7] of 2.3. Also, in [8], the inhibition result was “Active”. In data set [9], the inhibition entry was “Dose-Dependent Effect”. In data set [10], this compound had a Kp at 4 h of 2.35. Moreover, the Activity in data set [13] is 11.47%.

For the compound `COc1cccc2c1CCN(Cc1ccc(C(=O)NO)cc1)CC2`, the pIC50 in data set [15] is 6.10; in [4], 6.50.

On to `Cc1ccc2c(c1)N(Cc1ccc(C(=O)NO)cc1)CCCC2`, for which the values for the pIC50 in data set [15] and in data set [4] were 6.42 and 7.92, respectively.

In the case of `COc1ccc(-c2ccccc2)c2c1CCN(Cc1ccc(C(=O)NO)cc1)CC2`, the negative logarithm of the IC50 (pIC50) in data set [15] was 6.08; in data set [4], 6.30.

As to `COc1ccc(C2CC2)c2c1CCN(Cc1ccc(C(=O)NO)cc1)CC2`, the negative logarithm of the IC50 (pIC50) in [15] is 6.30.

In turn, `O=C(NO)c1ccc(CN2CCCCc3ccc(-c4ccccc4)cc32)cc1` showed a negative-log IC50 (pIC50) in data set [15] of 6.15.

As to `COc1ccc(Br)c2c1CCN(Cc1ccc(C(=O)NO)cc1)CC2`, the results for the pIC50 in data set [15] and in data set [4] were 6.41 and 6.95, respectively.

For `CCCCC1OC(=O)c2ccccc21` (stereo not given), the result in data set [16] was Active.

In the case of `COc1ccc2c(c1)N(Cc1ccc(C(=O)NO)cc1)CCCC2`, the concentration at 4 h was found to be 8.18 ng/mL in data set [1] and 18.7 ng/mL in data set [2]. In data set [3], the result was Active. The concentration at 1 h in data set [6] was 526 ng/mL; in data set [14], 957 ng/mL. This compound also displayed a Kp at 1 h in [7] of 1.85. The Kp at 4 h in data set [10] was found to be 2.29.

On to `O=C(NO)c1ccc(CN2CCCc3cc(Cl)ccc32)cc1`, for which the values for the concentration at 4 h in data set [1] and in data set [2] were 4.13 ng/mL and 13.1 ng/mL, respectively. The values for the concentration at 1 h in data set [6] and in data set [14] were 256 ng/mL and 468 ng/mL, respectively.

`O=C(NO)c1ccc(CNc2cccc3cccnc23)cc1`: the Kp in data set [17] stood at 1.01.

For `O=C(NO)c1cnc(NC2(c3cccc(F)c3)CCCCC2)nc1`, in [18], the Kp at 2 h turned out to be 1.26.

With `O=C(NO)c1ccc(CN2CCCc3ccccc3C2)cc1`, the pIC50 in data set [15] was 6.00; in [4] it was 7.00.

Consider `O=C(NO)c1ccc(CN2CCC[S+]([O-])c3ccccc32)cc1` (stereo not given), for which the pIC50 in data set [15] is 6.78; in data set [4], 7.89.

Take `O=C(NO)c1ccc(CN2CCCCc3ccccc32)cc1`: the pIC50 in [15] is 6.41; in data set [4], 8.19.

For `COc1ccc2c(c1)CCN(Cc1ccc(C(=O)NO)cc1)CC2`, the figures for the pIC50 in data set [15] and in data set [4] were 6.37 and 7.54, respectively.

For the compound `O=C(NO)c1ccc(CN2CCCCc3ccc(F)cc32)cc1`, the negative logarithm of the IC50 (pIC50) was 6.12 in data set [15] and 7.72 in data set [4].

As to `O=C(NO)c1ccc(CN2CCCOc3ccccc32)cc1`, the concentration at 4 h amounted to 4.29 ng/mL in data set [1] and 12.2 ng/mL in data set [2]. The figures for the concentration at 1 h in data set [6] and in [14] were 59.4 ng/mL and 111 ng/mL, respectively. The compound also came in with a Kp at 1 h in [7] of 1.98. The same compound came in with a Kp at 4 h in data set [10] of 2.88.

Turning to `O=C(NO)c1ccc(CN2CCc3ccccc3CC2)cc1`, the pIC50 was 6.09 in [15] and 6.59 in [4].

As to `O=C(NO)c1cnc(NC2(c3ccccc3)CC2)nc1`, the Kp at 2 h in data set [18] is 1.22.

Take `COc1cc2c(cc1OC)N(Cc1ccc(C(=O)NO)cc1)CCCC2`: the results for the negative-log IC50 (pIC50) in data set [15] and in data set [4] were 6.53 and 7.85, respectively.

On to `O=C(NO)c1ccc(CN2CCCCc3ccc(C4CC4)cc32)cc1`, for which the negative logarithm of the IC50 (pIC50) in data set [15] was 6.29.

Take `CN1CCc2c(c3ccccc3n2Cc2ccc(C(=O)NO)cc2)C1` [TUBASTATIN A]: in data set [3], the result was Active. Besides, the Kp at 2 h in data set [18] was determined as 0.18. For the same compound, in data set [13], the Activity was 13.02%.

Regarding `O=C(NO)c1ccc(CN2CCCCc3cc(Cl)ccc32)cc1`, the negative logarithm of the IC50 (pIC50) was 6.09 in [15] and 7.43 in data set [4].
